Several values for one entry are separate records, joined by “and”; a condition that tells them apart may be missing. Identical values can stand only once.
Assays:
[1] = (§1) Functional metabolic assay to measure dose dependent changes in cell viability from drug treatment in iPSC-Pneumocyte cells. The cells are seeded then incubated in MTT (3-[4,5-dimethylthiazol-2-yl]-2,5- diphenyltetrazolium bromide) labeling reagent and SDS. Absorbance is measured at 560 and 750 nm and analyzed by Gen5 software. The assay has been performed by Icahn School of Medicine at Mount Sinai.; type: toxicity, cell-based; settings: human
[2] = as §1, with “in HeLa-ACE2” for “in iPSC-Pneumocyte”, “cells. Hela-ACE2” for “cells. The”, “seeded prior to drug treatment,” for “seeded”, “bromide) labelling” for “bromide) labeling”; type: toxicity, cell-based; settings: human
[3] = Functional metabolic assay to measure dose dependent changes in cell viability from drug treatment in Vero E6/TMPRSS2 cells (cotreated with P-gp inhibitor, Elacridar). Cells are treated with antiviral candidates that have been serially diluted. Cytotoxicity is reported via measuring absorbance and analysis of MTT/MTS assays in uninfected cells. The assay has been performed by Icahn School of Medicine at Mount Sinai.; type: toxicity, cell-based, VeroE6/TMPRSS2; settings: chlorocebus sabaeus
[4] = Vero E6/TMPRSS2 cells, with Elacridar (P-gp inhibitor), concentration not stated

Row | Compound | CC50 ([1]; iPSC-Pneumocyte cells) [µM] | CC10 ([1]; pneumocyte) | CC10 ([2]; hela-ace2) | CC50 ([2]; HeLa-ACE2 cells) [µM] | other results
1 | CC(C)[C@@H](Nc1ncnc2[nH]ccc12)c1ccc2c(c1)S(=O)(=O)CCC2 | > 50 | > 50 µM | > 50 µM and > 20 µM |  | CC50 ([2]; hela-ace2): > 50 µM
2 | CC(C)[C@@H](Nc1ncnc2[nH]c(C(=O)N[C@H]3CCN(C)C3)cc12)c1ccc2c(c1)S(=O)(=O)CCC2 | > 50 | > 50 µM | > 20 µM | > 20 | 
3 | CCNC(=O)c1cc2c(N[C@@H](c3ccc4c(c3)S(=O)(=O)CCO4)C(C)C)ncnc2[nH]1 |  |  | > 20 µM | > 20 | 
4 | Cc1nn(C)cc1-c1cc2c(N[C@@H](c3ccc4c(c3)S(=O)(=O)CCC4)C(C)C)ncnc2[nH]1 |  |  | > 20 µM | > 20 | 
5 | CCNC(=O)c1cc2c(N[C@@H](c3ccc4c(c3)S(=O)(=O)CCC4)C(C)C)ncnc2[nH]1 |  |  | > 20 µM | > 20 | 
6 | Cn1ncc(-c2cc3c(N[C@@H](c4ccc5c(n4)OCCO5)C(C)(C)C)ncnc3[nH]2)c1C#N |  |  | > 10 µM and > 20 µM | > 10 | CC50 ([2]; hela-ace2): > 20 µM
7 | CNC(=O)c1cc2c(N[C@@H](c3ccc4c(c3)OCCO4)C(C)C)ncnc2[nH]1 | > 50 | > 50 µM | > 50 µM | > 50 | 
8 | CNC(=O)c1cccc(-c2cc3c(N[C@@H](c4ccc5c(c4)S(=O)(=O)CCC5)C(C)C)ncnc3[nH]2)c1 |  |  | > 20 µM | > 20 | 
9 | CC(C)[C@H](Nc1ncnc2[nH]c(-c3cnn(CC(N)=O)c3)cc12)c1ccc2c(c1)S(=O)(=O)CCC2 | > 50 | > 50 µM | > 20 µM | > 20 | 
10 | Cc1nn(C)cc1-c1cc2c(N[C@H](c3ccc4c(c3)S(=O)(=O)CCC4)C(C)C)ncnc2[nH]1 |  |  | > 20 µM | > 20 | CC50 [3, 4]: > 5 µM; CC10 ([3]; veroe6/tmprss2): > 5 µM
11 | CC(C)[C@@H](Nc1ncnc2[nH]c(C(=O)N[C@@H]3CCN(C)C3)cc12)c1ccc2c(c1)S(=O)(=O)CCC2 | < 0.206 | < 0.206 µM | > 20 µM | > 20 | CC50 [3, 4]: > 5 µM; CC10 ([3]; veroe6/tmprss2): > 5 µM
12 | CC(C)[C@@H](Nc1ncnc2[nH]c(-c3cnn(C)c3)cc12)c1ccc2c(c1)S(=O)(=O)NCC2 |  |  | > 20 µM | > 20 | 
13 | COc1ccc([C@H](Cc2nnn[nH]2)NC(=O)c2ncnc3[nH]ccc23)cc1 |  |  | > 20 µM | > 20 | CC50 [3, 4]: > 5 µM; CC10 ([3]; veroe6/tmprss2): > 5 µM
14 | CCNC(=O)c1cc2c(N[C@@H](c3ccc4c(c3)OCCO4)C(C)C)ncnc2[nH]1 | < 0.206 | 1.29 µM |  |  | 
15 | CC(C)[C@H](Nc1ncnc2[nH]c(-c3cnn(C)c3C#N)cc12)c1ccc2c(c1)S(=O)(=O)CCC2 |  |  | > 20 µM | > 20 | 
16 | CNCc1cc(-c2cc3c(N[C@@H](c4ccc5c(c4)S(=O)(=O)CCC5)C(C)C)ncnc3[nH]2)co1 | > 50 | > 50 µM | > 20 µM | > 20 | CC50 [3, 4]: > 5 µM; CC10 ([3]; veroe6/tmprss2): > 5 µM
17 | CC(C)(C)[C@H](Nc1ncnc2[nH]c(-c3cnn(CC(N)=O)c3)cc12)c1ccc2c(c1)OCCO2 |  |  | > 20 µM | > 20 | 
18 | CNCc1cc(-c2cc3c(N[C@H](c4ccc5c(c4)S(=O)(=O)CCC5)C(C)C)ncnc3[nH]2)co1 |  |  | > 20 µM | > 20 | 
19 | CC(C)[C@H](Nc1ncnc2[nH]c(-c3cnn(C)c3C#N)cc12)c1ccc2c(n1)NC(=O)CO2 |  |  | > 20 µM | > 20 | 
20 | CNCc1cc(-c2cc3c(N[C@@H](c4ccc5c(c4)S(=O)(=O)NCC5)C(C)C)ncnc3[nH]2)co1 | > 50 | > 50 µM | > 20 µM | > 20 | 
21 | CC(C)[C@@H](Nc1ncnc2[nH]ccc12)c1ccc2c(c1)S(=O)(=O)CCO2 |  |  | > 20 µM | > 20 | 
22 | CC(C)[C@@H](Nc1ncnc2[nH]ccc12)c1ccc2c(c1)NC(=O)CO2 | > 50 | > 50 µM | > 50 µM | > 50 | 
23 | C[C@H](C(=O)O)[C@@H](NC(=O)c1ncnc2[nH]ccc12)c1ccc(Br)cc1 |  |  | > 20 µM | > 20 | CC50 [3, 4]: > 5 µM; CC10 ([3]; veroe6/tmprss2): > 5 µM
24 | COc1ccc([C@@H](Cc2nnn[nH]2)NC(=O)c2ncnc3[nH]ccc23)cc1 |  |  | > 20 µM | > 20 | 
25 | CC(C)[C@H](Nc1ncnc2[nH]c(-c3cnn(C)c3C#N)cc12)c1ccc2c(c1)NC(=O)CO2 |  |  | > 20 µM | > 20 | 
26 | CCNC(=O)c1cc2c(N[C@@H](c3ccc4c(c3)S(=O)(=O)NCC4)C(C)C)ncnc2[nH]1 |  |  | > 20 µM | > 20 | 
27 | CC(C)[C@H](Nc1ncnc2[nH]c(-c3cnn(C)c3)cc12)c1ccc2c(c1)S(=O)(=O)CCC2 |  |  | > 20 µM | > 20 | 

Row | Compound | CC50 ([1]; iPSC-Pneumocyte cells) [µM] | CC10 ([1]; pneumocyte) | CC10 ([2]; hela-ace2) | CC50 ([2]; HeLa-ACE2 cells) [µM] | other results
28 | CNC(=O)Cn1cc(-c2cc3c(N[C@@H](c4ccc5c(c4)S(=O)(=O)CCC5)C(C)C)ncnc3[nH]2)cn1 | 1.7 | 1.528 µM | > 20 µM | > 20 | CC50 [3, 4]: > 5 µM; CC10 ([3]; veroe6/tmprss2): > 5 µM
29 | CC(C)[C@H](Nc1ncnc2[nH]c(-c3cnn(C)c3C#N)cc12)c1ccc2c(n1)OCCO2 |  |  | > 20 µM and > 50 µM | > 20 | CC50 [3, 4]: > 5 µM; CC10 ([3]; veroe6/tmprss2): > 5 µM; CC50 ([2]; hela-ace2): 12.5 µM
30 | CC(C)[C@@H](Nc1ncnc2[nH]c(-c3cnn(C)c3C#N)cc12)c1ccc2c(c1)OCCO2 |  | 24.479 µM and > 50 µM | > 50 µM | > 50 | CC50 ([1]; pneumocyte): 18.1 µM and > 50 µM
31 | CC(C)[C@H](Nc1ncnc2[nH]ccc12)c1ccc2c(c1)S(=O)(=O)CCC2 |  |  | > 20 µM | > 20 | CC50 ([3]; veroe6/tmprss2): > 20 µM
32 | CC(C)[C@@H](Nc1ncnc2[nH]cc(C(=O)NC3CC3)c12)c1ccc2c(c1)S(=O)(=O)CCC2 |  |  | > 20 µM | > 20 | 
33 | CC(C)[C@@H](Nc1ncnc2[nH]c(-c3ccc4nnn(C)c4c3)cc12)c1ccc2c(c1)S(=O)(=O)CCC2 |  |  | > 20 µM | > 20 | 
34 | CC(C)[C@@H](Nc1ncnc2[nH]c(-c3cnn(C)c3)cc12)c1ccc2c(c1)S(=O)(=O)CCC2 | > 50 | > 50 µM | > 20 µM | > 20 | 
35 | Cc1ncc(-c2cc3c(N[C@@H](c4ccc5c(c4)OCCO5)C(C)C)ncnc3[nH]2)cn1 | > 50 | > 50 µM | > 20 µM | > 20 | 
36 | CC(C)[C@@H](Nc1ncnc2[nH]c(-c3cnn(CC(N)=O)c3)cc12)c1ccc2c(n1)OCCO2 | > 50 | > 50 µM |  |  | 
37 | CNC(=O)Cn1cc(-c2cc3c(N[C@H](c4ccc5c(c4)S(=O)(=O)CCC5)C(C)C)ncnc3[nH]2)cn1 | > 50 | > 50 µM | > 20 µM | > 20 | 
38 | CC(C)[C@@H](Nc1ncnc2[nH]c(-c3ccc4cncn4c3)cc12)c1ccc2c(c1)S(=O)(=O)CCC2 |  |  | > 20 µM | > 20 | 
39 | CC(C)[C@@H](Nc1ncnc2[nH]c(-c3cncc(S(C)(=O)=O)c3)cc12)c1ccc2c(c1)S(=O)(=O)CCC2 |  |  | > 20 µM | > 20 | 
40 | CC(C)(C)[C@@H](Nc1ncnc2[nH]c(-c3cnn(CC(N)=O)c3)cc12)c1ccc2c(n1)OCCO2 | > 50 | > 50 µM | > 20 µM | > 20 | 
41 | CC(C)[C@@H](Nc1ncnc2[nH]c(C(N)=O)cc12)c1ccc2c(c1)OCCO2 | > 50 | > 50 µM | < 0.082 µM | < 0.082 | 
42 | CC(C)[C@@H](Nc1ncnc2[nH]c(-c3cnn(CC(N)=O)c3)cc12)c1ccc2c(c1)S(=O)(=O)CCC2 |  |  | > 20 µM | > 20 | 
43 | CNC(=O)c1cc2c(N[C@@H](c3ccc4c(c3)S(=O)(=O)CCC4)C(C)C)ncnc2[nH]1 |  |  | > 20 µM | > 20 | 
44 | CNC(=O)c1cccc(-c2cc3c(N[C@H](c4ccc5c(c4)S(=O)(=O)CCC5)C(C)C)ncnc3[nH]2)c1 |  |  | > 20 µM | > 20 | 
45 | CC(C)[C@@H](Nc1ncnc2[nH]c(-c3cnn(CC(=O)N(C)C)c3)cc12)c1ccc2c(c1)OCCO2 |  |  | > 20 µM | > 20 | 
46 | CC(C)[C@@H](Nc1ncnc2[nH]c(-c3cnn(CC(=O)N(C)C)c3)cc12)c1ccc2c(c1)S(=O)(=O)CCC2 |  |  | > 20 µM | > 20 | 
47 | CC(C)[C@@H](Nc1ncnc2[nH]c(-c3cnn(C)c3C#N)cc12)c1ccc2c(n1)NC(=O)CO2 |  |  | > 20 µM | > 20 | 
48 | CC(C)[C@@H](Nc1ncnc2[nH]c(-c3cnn(C)c3C#N)cc12)c1ccc2c(c1)S(=O)(=O)CCC2 | > 50 | > 50 µM | > 20 µM | > 20 | 
49 | Cn1ncc(-c2cc3c(N[C@@H](c4ccc5c(c4)OCCO5)C(C)(C)C)ncnc3[nH]2)c1C#N | 48.6 | > 50 µM | > 20 µM | > 20 | 
50 | C[C@@H](C(=O)O)[C@H](NC(=O)c1ncnc2[nH]ccc12)c1ccc(Br)cc1 |  |  | > 20 µM | > 20 | 
51 | CCNC(=O)c1cc2c(N[C@H](c3ccc4c(c3)OCCO4)C(C)C)ncnc2[nH]1 |  |  | > 20 µM | > 20 | 
52 | CC(C)[C@@H](Nc1ncnc2[nH]c(-c3cnn(C)n3)cc12)c1ccc2c(c1)OCCO2 | < 0.206 | < 0.206 µM | > 20 µM | > 20 | 
53 | CC(C)[C@@H](Nc1ncnc2[nH]c(-c3cnn(CC(N)=O)c3)cc12)c1ccc2c(c1)OCCO2 | > 50 | > 50 µM | > 50 µM | > 50 | 
